Data from US20260256818A1, “NOVEL CO-DRUG, CO-ADMINISTRATION, AND SEQUENTIAL ADMINISTRATION OF BISPECIFIC RBP4/TTR LIGAND AND C20-D3-RETINOL FOR ELIMINATION OF MECHANISM-BASED OCULAR ADVERSE EFFECTS IN TREATING MACULAR DEGENERATION AND TTR AMYLOIDOSIS” (The Trustees of Columbia University in the City of New York, priority 2023, published 2026).

Experiments:
[1] = tested on: lipofuscin bisretinoid synthesis; conditions: Abca4-/- mice; cited from earlier work
RBP4 [2] = conditions: in vivo; cited from earlier work
rhodopsin = assay: Rhodopsin measured spectrophotometrically in retinal extracts of dark-adapted mice after 7 days oral dosing; format: in vivo; conditions: wild-type Balb/c mice, 25 mg/kg daily oral (chow), n=8
Method: FIG. 14. Effects of C20-D3-retinyl acetate on rhodopsin levels in ACPHS-52-treated Balb/c mice. Rhodopsin was measured spectrophotometrically in retinal extracts (n=8) from dark-adapted treated and control mice. Treated mice were given 7 daily oral dose of 25 mg/kg ACPHS-52 or the same dose of ACPHS-52 along with 3.3 mg/kg C20-D3-retinyl acetate. Untreated control mice were kept on standard diet.
ACPHS-52 was previously identified and described as a compound that exemplifies a novel class of bispecific ligands that act as both RBP4 antagonists and kinetic stabilizers of TTR tetramers (Cioffi, C. L. et al. 2020). Thus, ACPHS-52 was used as a representative “first component” of the present disclosure in order to assess the feasibility of the co-drug strategy. Accordingly, an experiment was conducted to determine whether partial reduction in functional rhodopsin (opsin with conjugated 11-cis-retinal) induced by oral ACPHS-52 in mice can be compensated by co-administration with C20-D3-retinyl acetate.
The experiment was conducted in Balb/c mice. Three groups of mice were used: control untreated mice; mice treated with ACPHS-52; and mice treated with the ACPHS-52 plus C20-D3-retinyl acetate combination. […] Rhodopsin was measured spectrophotometrically in retinal extracts (n=8) from dark-adapted treated and control mice using a previously published protocol (Racz, B. et al. 2018).

TTR tetramers = TTR tetramers (Homo sapiens, UniProt P02766); conditions: cited from earlier work
TTR = conditions: ATTR-CM patients with symptomatic, chronic heart failure, Phase III; cited from earlier work
RBP4 [3] = conditions: non-human primates, oral administration; cited from earlier work
[4] = cited from earlier work
[5] = long-term use, cancer patients; cited from earlier work
[6] = Phase 2, dry AMD patients; cited from earlier work
[7] = patients treated for TTR amyloidosis; cited from earlier work
RBP4 [8] = target: T1, RBP4 (Mus musculus, UniProt Q00724); conditions: rodents; cited from earlier work
T1 construct: circulating RBP4 plasma levels in rodents; host or cells: plasma/serum of rodents

**Q.** With `[2H]C([2H])([2H])C(/C=C/C=C(C)/C=C/C1=C(C)CCCC1(C)C)=C\COC(C)=O` [C20-D3-retinyl acetate] as the molecule, how does the “effect on retinal bisretinoid accumulation/synthesis” value [1] read?
**A.** effective in inhibiting bisretinoid synthesis

**Q.** Which results are given for `Cc1cc(C(=O)O)nc(N2CCC(COc3ccccc3C(F)(F)F)C2)n1` (stereo not shown) [ACPHS-52]?
**A.** effect on serum RBP4 (RBP4 [2]): pronounced reduction in serum RBP4; reduction in rhodopsin in comparison to untreated mice (rhodopsin): 3 fold; effect on TTR tetramers (TTR tetramers): stabilization of TTR tetramers

**Q.** For `Cc1n[nH]c(C)c1CCCOc1cc(C(=O)O)ccc1F` [AG10], which “stabilization of TTR” value (TTR) is on record?
**A.** near-complete stabilization of TTR

**Q.** Which results are given for `Cc1cc(C(=O)O)nc(N2C[C@H]3CC(c4ccccc4C(F)(F)F)C[C@H]3C2)n1` (stereo partly shown) [Compound 8, BPN-14136]?
**A.** effect on serum RBP4 levels (RBP4 [3]): robustly lowered serum RBP4 levels; effect on retinal bisretinoid accumulation/synthesis [1]: inhibited lipofuscin bisretinoid synthesis

**Q.** For `O=C(O)c1ccc2nc(-c3cc(Cl)cc(Cl)c3)oc2c1` [tafamidis], which “patients who do not respond” value [4] is on record?
**A.** Approximately 30%

**Q.** Which “yearly prevalence of transient and reversible ocular AEs such as diminished dark adaptation” value [5] does the source give for `CC1=C(/C=C/C(C)=C/C=C/C(C)=C/C(=O)Nc2ccc(O)cc2)C(C)(C)CCC1` [fenretinide] here?
**A.** 5.8-6.7%

**Q.** And the “drug-treated patients with reversible reduction in dark adaptation” value [6]?
**A.** ~ 10%

**Q.** Which ocular adverse effect [7] does the source give for patisiran here?
**A.** symptoms of night blindness in a subset of patients

**Q.** With `O=C(O)c1ccccc1NC(=O)N1CCC(c2ccccc2C(F)(F)F)CC1` [Compound A1120, A1120] as the molecule, how does the “lowering of circulating RBP4 plasma levels” value (RBP4 [8]) read?
**A.** > 70%

**Q.** What about the “effect on retinal bisretinoid accumulation/synthesis” value [1] of the same molecule?
**A.** reduce retinal bisretinoid accumulation
